In publication PMC10180137 (Molecules, 2023):
Like-named read-outs stand apart in the source and are kept apart here.

Key:
yeast α-glucosidase = assay: α-glucosidase inhibitory activity assay (p-NPG substrate, absorbance at 405 nm); format: biochemical, Saccharomyces cerevisiae
Description: This experiment was carried out in 96-well plates with reaction system of 230 μL. […] The 96-well plates were incubated in a constant-temperature incubator for 20 min at 37 °C, then 20 μL of 2.658 mmol/L p-PNG was added, and then incubation continued for another 28 min. The termination of the reaction was conducted by adding 80 μL of 0.2 mol/L Na2CO3 to each well. The absorbance was recorded for each well at 405 nm by a microplate reader, and the experiment was carried out three times in parallel. The measured absorbance values were processed by Graphpad Prism software 9.5 to calculate the IC50 values of the compounds.

α-glucosidase = assay: Inhibitory kinetics against α-glucosidase (Lineweaver–Burk plots); format: biochemical, Saccharomyces cerevisiae; conditions: Lineweaver–Burk plot; compound 0, 5.44, 10.87, 21.74 μM
From the text: The inhibitory kinetics of seven compounds (8-9, 11, 13, 24-26) that have strong α-glucosidase inhibitory activities were studied. The Lineweaver–Burk plot was used to determine their inhibition types against α-glucosidase. […] As for compound 8, the slope of the lines became greater with the increase in the concentration, but all straight lines intersected with the x-axis almost at one point (while Vmax decreased, Km was unchanged), showing that α-glucosidase inhibition mediated by compound 8 is noncompetitive, signifying that it can bind to either the free α-glucosidase or the enzyme–substrate complex to interfere the enzyme reaction without directly blocking the binding of the substrate to the enzyme.
Concentrations of active compounds 8-9, 11, 13, 24-26 (0, 5.44, 10.87, 21.74 μM) and the substrate p-NPG ([…]) were prepared, and an experimental protocol is described in detail in the literature. The data were acquired using the Lineweaver–Burk equation of enzyme kinetics.

[1] = IC50 ± SD, PBS pH 6.8, 37 °C, three times in parallel, read-out: IC50 (μM), inhibition activities on α-Glucosidase
[2] = unit inferred, read-out: IC50 against α-glucosidase (unit inferred)

Row | Compound | IC50 (yeast α-glucosidase; [1]) [µM] | also measured
1 | CC1(C)Oc2cc(/C=C/c3ccccc3)cc(O)c2CC1O (stereo not drawn) [Compound 4, chiricanine B] | > 2000 | 
2 | COc1cc(O)c2c(c1)O[C@H](c1ccc(O)cc1)CC2=O [Compound 16, sakuranetin] | > 2000 | 
3 | COc1cc(O)cc(/C=C/c2ccccc2)c1 [Compound 6, pinosylvin monomethyl ether] | > 2000 | 
4 | O=c1cc(-c2ccc(O)cc2)oc2c(C3OCC(O)C(O)C3O)c(O)cc(O)c12 [Compound 23, apigenin-8-C-α-L-arabinopyranoside] | > 2000 | 
5 | COc1cc(O)c2c(c1)O[C@H](c1ccccc1)CC2=O [Compound 15, pinostrobin] | > 2000 | 
6 | CC(C)=CCc1c(O)cc2oc(-c3ccccc3)cc(=O)c2c1O [Compound 12, 6-C-(3,3-dimethylallyl) chrysin] | > 2000 | 
7 | O=c1cc(-c2ccc(O)c(O)c2)oc2cc(O)ccc12 [Compound 25, 7, 3′, 4′-trihydroxy flavone] | 3.17 ± 0.55 | IC50 (yeast α-glucosidase; [2]): 3.17 ± 0.55 µM
8 | 7, 3′, 4′-trihydroxy isoflavone [Compound 24] | 6.5 ± 0.42 | 
9 | COc1cc(/C=C/c2ccccc2)cc(O)c1CC=C(C)C [Compound 9, longistylin A] | 12.9 ± 1.31 | inhibition type against α-glucosidase (α-glucosidase): mixed-competitive
10 | 3, 4′-O-dimethylquercetin [Compound 21] | 19.4 ± 1.02 | 
11 | COc1cc(/C=C/c2ccccc2)c(C(=O)O)c2c1C[C@@H](O)C(C)(C)O2 [Compound 2, cajanstilbenoid D] | > 2000 | 
12 | COc1cc(O)c2c(=O)cc(-c3ccccc3)oc2c1CC=C(C)C [Compound 13, 5-hydroxy-7-methoxy-8-prenylflavone] | 2.3 ± 0.51 | inhibition type against α-glucosidase (α-glucosidase): mixed-competitive; IC50 (yeast α-glucosidase; [2]): 2.3 ± 0.5 µM
13 | COc1cc(O)c2c3c1C[C@H](C(C)(C)O)[C@H](c1ccccc1)[C@H]3OC2=O [Compound 1, cajanstilbenoid C] | > 2000 | 
14 | COc1cc(O)cc(CC(=O)c2ccccc2)c1CC=C(C)C [Compound 7, cajanotone] | > 2000 | 
15 | COc1cc(/C=C/c2ccccc2)c(C(=O)O)c(O)c1CC=C(C)C [Compound 5, cajaninstilbene acid] | > 2000 | 
16 | CC(C)=CCc1c(O)cc(/C=C/c2ccccc2)cc1O [Compound 3, chiricanine A] | 30.3 ± 2.33 | 
17 | COc1cc(O)cc(CCc2ccccc2)c1CC=C(C)C [Compound 8] | 7 ± 0.45 | inhibition type against α-glucosidase (α-glucosidase): noncompetitive
18 | COc1ccc2c(=O)c(-c3ccc(O)cc3O)coc2c1 [Compound 18, 7-methoxy-2′, 4′-dihydroxy isoflavone] | > 2000 | 
19 | CC1(C)C=Cc2c(cc3occ(-c4ccc(O)cc4)c(=O)c3c2O)O1 [Compound 27, alpinum isoflavone] | > 2000 | 
20 | CC(C)=CCc1c(O)cc(O)c2c(=O)c(O)c(-c3ccc(O)c(O)c3)oc12 [Compound 11, 8-prenylquercretin] | 0.87 ± 0.05 | inhibition type against α-glucosidase (α-glucosidase): anticompetitive; IC50 (yeast α-glucosidase; read-out: IC50 against α-glucosidase (text, with unit)): 0.87 ± 0.05 µM
21 | CC1(C)C=Cc2c(cc(O)c3c2O[C@H](c2ccc(O)cc2)CC3=O)O1 [Compound 26, 8-prenylnaringenin C] | 2.35 ± 0.54 | IC50 (yeast α-glucosidase; [2]): 2.35 ± 0.54 µM
22 | COc1ccc(-c2oc3cc(O)cc(O)c3c(=O)c2O)cc1O [Compound 19, tamarixetin] | 8.7 ± 0.08 | 
23 | CC(C)=CCc1c(O)cc(O)c2c1O[C@H](c1ccc(O)cc1)[C@@H](O)C2=O [Compound 20, neophellamuretin] | 4.5 ± 0.49 | IC50 (yeast α-glucosidase; [2]): 4.5 ± 0.49 µM
24 | COc1cc(O)c2c(c1CC=C(C)C)O[C@H](c1ccccc1)[C@@H](O)C2=O [Compound 14, 3,5-dihydroxy-7-methoxy-8-isopentenyl-dihydroflavone] | > 2000 | 
